Measured values reported in patent US12447193B2, “Compositions and methods for prevention and treatment of infections” (The University of Memphis Research Foundation, priority 2019, dated 2025).

System: S. aureus (UAMS-1)
Experiment: Osteomyelitis model in New Zealand White rabbits
Format: in vivo
Conditions: rabbit radius defect, 3 weeks, H&E
Experimental: This animal model was approved by the IACUC at the University of Arkansas Medical Sciences with all appropriate measures taken to minimize pain and discomfort. This in vivo model is an adaptation of the work by Smeltzer et al J Orthop Res, 1997 15(3):414-21. Female New Zealand White rabbits weighing 2-3 kg were divided into 5 groups (n=6/group) including the following: no treatment control, a hollow PMMA (Orthoset, MicroPort Memphis, TN) cylinder with amikacin and vancomycin (approximately 15 mg/implant), a vancomycin sprinkle of 10 mg, the Ch-PEG paste, and the ChMPEG paste. Rabbits were anesthetized with 1-2 cc of a xylazine/ketamine mixture intramuscularly for a dose range of […] xylazine and 30-40 mg/kg ketamine. Rabbits were maintained on isoflurane administered by nose cone to produce surgical anesthesia and monitored by a veterinary technician. The right forelimb of each rabbit was shaved and prepped using a betadine scrub and rinsed with 70% ethanol. An incision was made on the anterior surface of the right forelimb through the epidermis, musculature, and fascia until the radius was exposed. A 1 cm mid-radial segment was excised from the right radial bone using a miniature saw blade (Exakt, Oklahoma City, OK). […]

SMILES: CN[C@H](CC(C)C)C(=O)N[C@H]1C(=O)N[C@@H](CC(N)=O)C(=O)N[C@H]2C(=O)N[C@H]3C(=O)N[C@H](C(=O)N[C@H](C(=O)O)c4cc(O)cc(O)c4-c4cc3ccc4O)[C@H](O)c3ccc(c(Cl)c3)Oc3cc2cc(c3O[C@@H]2O[C@H](CO)[C@@H](O)[C@H](O)[C@H]2O[C@H]2C[C@](C)(N)[C@H](O)[C@H](C)O2)Oc2ccc(cc2Cl)[C@H]1O [vancomycin powder, vancomycin]
- inflammation in histological sections of bone in the defect: areas of high inflammatory cell presence
- tissue growth / fill in the defect (histology): tissue fill within the defect
